The results in this text go back to ChEMBL document CHEMBL1136320, “Substrate properties of C5-substituted pyrimidine 2'-deoxynucleoside 5'-triphosphates for thermostable DNA polymerases during PCR” (Bioorg Med Chem Lett, 2003).

Assay [1] has as its system Nucleic Acid. Nature of the assay: Amount of full-length DNA product formed using polymerase A Thermo Sequenase; No product detected. The format is nucleic-acid assay.
Assay [2] has as its system Nucleic Acid. Put plainly: Amount of full-length DNA product formed using polymerase B Pwo. The format is nucleic-acid assay.
Assay [3] deals with Nucleic Acid. Put plainly: Amount of full-length DNA product formed using polymerase B Vent (exo); range is 35-70%. It counts as nucleic-acid assay.
Assay [4] relates to Nucleic Acid. Nature of the assay: Amount of full-length DNA product formed using polymerase B Pfu. The format is nucleic-acid assay.
Assay [5] relates to Nucleic Acid. Nature of the assay: Amount of full-length DNA product formed using polymerase B Deep vent (exo). The format is nucleic-acid assay.
Assay [6] relates to Nucleic Acid. Nature of the assay: Amount of full-length DNA product formed using polymerase A Tth; No product detected. The format is nucleic-acid assay.
In assay [7] the test system is Nucleic Acid. Put plainly: Amount of full-length DNA product formed using Taq polymerase; No product detected. The format is functional.
Assay [8] has as its system Nucleic Acid. Put plainly: Amount of full-length DNA product formed using polymerase B Pwo; range is 35-70%. The format is nucleic-acid assay.
The test system of assay [9] is Nucleic Acid. Nature of the assay: Amount of full-length DNA product formed using polymerase B Vent (exo); No product detected. It counts as nucleic-acid assay.
For assay [10], the system named is Nucleic Acid. Put plainly: Amount of full-length DNA product formed using polymerase B Deep vent (exo); No product detected. The format is nucleic-acid assay.
Assay [11] concerns Nucleic Acid. Put plainly: Amount of full-length DNA product formed using polymerase B Pfu; No product detected. The format is nucleic-acid assay.
Assay [12] deals with Nucleic Acid. Put plainly: Amount of full-length DNA product formed using polymerase B Pwo; No product detected. It counts as nucleic-acid assay.

For `NCCOCCOCc1cn(C2CC(O)C(COP(=O)(O)OP(=O)(O)OP(=O)(O)O)O2)c(=O)[nH]c1=O` (stereo unspecified), the Activity entry in the assay with Nucleic Acid [1] is “Not detected”; with Nucleic Acid [2], below 35%; in the assay on Nucleic Acid [3], 35%; in the assay with Nucleic Acid [4] it was below 35%; with Nucleic Acid [5], below 35%; in the assay on Nucleic Acid [6] it was “Not detected”. Moreover, the Activity result in the assay on Nucleic Acid [7] is “Not detected”.

On to `NCCOCCOCc1cn(C2CC(O)C(COP(=O)(O)OP(=O)(O)OP(=O)(O)O)O2)c(=O)nc1N` (stereo unspecified), for which the Activity entry is “Not detected” in the assay with Nucleic Acid [1]; 35% with Nucleic Acid [8]; 35% with Nucleic Acid [3]; below 35% in the assay on Nucleic Acid [4]; below 35% in the assay with Nucleic Acid [5]; “Not detected” in the assay with Nucleic Acid [6]. For the same molecule, the Activity entry in the assay with Nucleic Acid [7] was “Not detected”.

Consider `CC#Cc1cn(C2CC(O)C(COP(=O)(O)OP(=O)(O)OP(=O)(O)O)O2)c(=O)nc1N` (stereo unspecified), for which the Activity result in the assay on Nucleic Acid [1], in the assay with Nucleic Acid [9], in the assay with Nucleic Acid [10], in the assay on Nucleic Acid [11], with Nucleic Acid [6] and in the assay with Nucleic Acid [12] was “Not detected” in each case. Also, the Activity result in the assay on Nucleic Acid [7] is “Not detected”.
